Data as given in ChEMBL document CHEMBL3885861, “Open TG-GATES”.

Species: Rattus norvegicus
Assay: Open TG-GATES - Regimen: Daily Repeat
Format: toxicity, organism-based, Sprague-Dawley
Set-up: regimen Daily Repeat, gender Male, age 6 weeks
Settings: in vivo, po, route gavage; for APTT / Bas / Eos / Fbg / Hb / Ht / Lym / MCH / MCHC / MCV / Mono / Neu / PT / Plat / RBC / Ret / WBC: tissue Blood; for KIDNEY_L / KIDNEY_R / KIDNEY_TOTAL: tissue Kidney; for LIVER: tissue Liver; for A/G / ALP / ALT / AST / BUN / CRE / Ca / Cl / DBIL / GLC / IP / K / LDH / Na / PL / RALB / TBIL / TC / TG / TP / gamma-GTP: tissue Plasma
[1] = 25 mg/kg, 72 h, dose level Middle, time 3 day
[2] = 25 mg/kg, […], dose level Middle, time 7 day
[3] = 25 mg/kg, […], dose level Middle, time 14 day
[4] = 25 mg/kg, […], dose level Middle, time 28 day
[5] = 75 mg/kg, 72 h, dose level High, time 3 day
[6] = 75 mg/kg, […], dose level High, time 7 day
[7] = 75 mg/kg, […], dose level High, time 14 day
[8] = 75 mg/kg, […], dose level High, time 28 day

NC1=NC(=O)C(c2ccccc2)O1 (centres undefined) [PEMOLINE]
TERMINAL_BW [1]: 222.4 g
APTT [1]: 16.7 s
Bas [1]: 0%
Eos [1]: 1%
Fbg [1]: 288.4 mg/dL
Hb [1]: 13.3 g/dL
Ht [1]: 39%
Lym [1]: 76.2%
MCH [1]: 21.3 pg
MCHC [1]: 33.9%
MCV [1]: 62.6 fL
Mono [1]: 3%
Neu [1]: 19.4%
PT [1]: 13 s
Plat [1]: 109.7 x10_4/uL
RBC [1]: 623.8 x10_4/ul
Ret [1]: 6.1%
WBC [1]: 79.9 x10_2/uL
KIDNEY_L [1]: 1 g
KIDNEY_R [1]: 0.9 g
KIDNEY_TOTAL [1]: 1.9 g
LIVER [1]: 9.9 g
A/G [1]: 0.9
ALP [1]: 1654.8 IU/L
ALT [1]: 41.8 IU/L
AST [1]: 72.6 IU/L
BUN [1]: 13.8 mg/dL
CRE [1]: 0.2 mg/dL
Ca [1]: 10.7 mg/dL
Cl [1]: 105.8 meq/L
DBIL [1]: 0.018 mg/dL
GLC [1]: 177.4 mg/dL
IP [1]: 7.5 mg/dL
K [1]: 4.1 meq/L
LDH [1]: 54.2 IU/L
Na [1]: 142.2 meq/L
PL [1]: 130.6 mg/dL
RALB [1]: 2.6 g/dL
TBIL [1]: 0.03 mg/dL
TC [1]: 79.8 mg/dL
TG [1]: 40 mg/dL
TP [1]: 5.4 g/dL
gamma-GTP [1]: 1 IU/L
TERMINAL_BW [2]: 260.2 g
TERMINAL_BW [3]: 319 g
TERMINAL_BW [4]: 384.9 g
APTT [2]: 15.8 s
Bas [2]: 0%
Eos [2]: 1%
Fbg [2]: 268.6 mg/dL
Hb [2]: 13.4 g/dL
Ht [2]: 39.5%
Lym [2]: 73.4%
MCH [2]: 20.9 pg
MCHC [2]: 34%
MCV [2]: 61.5 fL
Mono [2]: 3%
Neu [2]: 21.8%
PT [2]: 13.1 s
Plat [2]: 116 x10_4/uL
RBC [2]: 642.2 x10_4/ul
Ret [2]: 5.8%
WBC [2]: 107.7 x10_2/uL
APTT [3]: 16.6 s
Bas [3]: 0%
Eos [3]: 1%
Fbg [3]: 294.2 mg/dL
Hb [3]: 14.7 g/dL
Ht [3]: 42.4%
Lym [3]: 78.8%
MCH [3]: 21.3 pg
MCHC [3]: 34.7%
MCV [3]: 61.3 fL
Mono [3]: 2.6%
Neu [3]: 17.2%
PT [3]: 13.1 s
Plat [3]: 114.8 x10_4/uL
RBC [3]: 692.2 x10_4/ul
Ret [3]: 4.6%
WBC [3]: 86.6 x10_2/uL
APTT [4]: 17.9 s
Bas [4]: 0.6%
Eos [4]: 1%
Fbg [4]: 269 mg/dL
Hb [4]: 15.9 g/dL
Ht [4]: 44.1%
Lym [4]: 80%
MCH [4]: 20.6 pg
MCHC [4]: 36.1%
MCV [4]: 57.1 fL
Mono [4]: 2.4%
Neu [4]: 15.2%
PT [4]: 12.7 s
Plat [4]: 109.5 x10_4/uL
RBC [4]: 771.4 x10_4/ul
Ret [4]: 2.6%
WBC [4]: 116.8 x10_2/uL
KIDNEY_L [2]: 1.1 g
KIDNEY_R [2]: 1.1 g
KIDNEY_TOTAL [2]: 2.3 g
KIDNEY_L [3]: 1.3 g
KIDNEY_R [3]: 1.3 g
KIDNEY_TOTAL [3]: 2.5 g
KIDNEY_L [4]: 1.4 g
KIDNEY_R [4]: 1.3 g
KIDNEY_TOTAL [4]: 2.7 g
LIVER [2]: 11.6 g
LIVER [3]: 14 g
LIVER [4]: 14.4 g
A/G [2]: 0.9
ALP [2]: 1546.6 IU/L
ALT [2]: 44.4 IU/L
AST [2]: 75.6 IU/L
BUN [2]: 15.6 mg/dL
CRE [2]: 0.2 mg/dL
Ca [2]: 10.4 mg/dL
Cl [2]: 104.4 meq/L
DBIL [2]: 0.016 mg/dL
GLC [2]: 179 mg/dL
IP [2]: 8 mg/dL
K [2]: 4.2 meq/L
LDH [2]: 75.6 IU/L
Na [2]: 142 meq/L
PL [2]: 141.6 mg/dL
RALB [2]: 2.5 g/dL
TBIL [2]: 0.024 mg/dL
TC [2]: 73.4 mg/dL
TG [2]: 117.8 mg/dL
TP [2]: 5.4 g/dL
gamma-GTP [2]: 1 IU/L
A/G [3]: 0.8
ALP [3]: 1343.2 IU/L
ALT [3]: 46.6 IU/L
AST [3]: 72.2 IU/L
BUN [3]: 16.8 mg/dL
CRE [3]: 0.2 mg/dL
Ca [3]: 11.2 mg/dL
Cl [3]: 105.2 meq/L
DBIL [3]: 0.014 mg/dL
GLC [3]: 182.6 mg/dL
IP [3]: 8.7 mg/dL
K [3]: 4 meq/L
LDH [3]: 68.4 IU/L
Na [3]: 144.2 meq/L
PL [3]: 158.6 mg/dL
RALB [3]: 2.7 g/dL
TBIL [3]: 0.022 mg/dL
TC [3]: 83.6 mg/dL
TG [3]: 119.4 mg/dL
TP [3]: 6 g/dL
gamma-GTP [3]: 1 IU/L
A/G [4]: 0.8
ALP [4]: 1018.2 IU/L
ALT [4]: 37.8 IU/L
AST [4]: 66.8 IU/L
BUN [4]: 16.6 mg/dL
CRE [4]: 0.2 mg/dL
Ca [4]: 11.2 mg/dL
Cl [4]: 105.2 meq/L
DBIL [4]: 0.016 mg/dL
GLC [4]: 179.4 mg/dL
IP [4]: 7.5 mg/dL
K [4]: 3.9 meq/L
LDH [4]: 76.8 IU/L
Na [4]: 143.4 meq/L
PL [4]: 134.4 mg/dL
RALB [4]: 2.7 g/dL
TBIL [4]: 0.03 mg/dL
TC [4]: 71.6 mg/dL
TG [4]: 134.8 mg/dL
TP [4]: 6.2 g/dL
gamma-GTP [4]: 1 IU/L
TERMINAL_BW [5]: 210.2 g
APTT [5]: 16.1 s
Bas [5]: 0%
Eos [5]: 1%
Fbg [5]: 378.8 mg/dL
Hb [5]: 13.2 g/dL
Ht [5]: 38.4%
Lym [5]: 72.6%
MCH [5]: 21.4 pg
MCHC [5]: 34.3%
MCV [5]: 62.4 fL
Mono [5]: 4%
Neu [5]: 21.4%
PT [5]: 13.1 s
Plat [5]: 116.2 x10_4/uL
RBC [5]: 614.2 x10_4/ul
Ret [5]: 5.7%
WBC [5]: 96.9 x10_2/uL
KIDNEY_L [5]: 1 g
KIDNEY_R [5]: 1 g
KIDNEY_TOTAL [5]: 1.9 g
LIVER [5]: 9.5 g
A/G [5]: 0.9
ALP [5]: 1189.4 IU/L
ALT [5]: 40.6 IU/L
AST [5]: 91.6 IU/L
BUN [5]: 14.4 mg/dL
CRE [5]: 0.2 mg/dL
Ca [5]: 10.5 mg/dL
Cl [5]: 106 meq/L
DBIL [5]: 0.014 mg/dL
GLC [5]: 162.2 mg/dL
IP [5]: 7.4 mg/dL
K [5]: 4 meq/L
LDH [5]: 46.6 IU/L
Na [5]: 142.6 meq/L
PL [5]: 118.6 mg/dL
RALB [5]: 2.6 g/dL
TBIL [5]: 0.03 mg/dL
TC [5]: 70.8 mg/dL
TG [5]: 40.2 mg/dL
TP [5]: 5.4 g/dL
gamma-GTP [5]: 1 IU/L
TERMINAL_BW [6]: 237.7 g
TERMINAL_BW [7]: 305 g
TERMINAL_BW [8]: 376.6 g
APTT [6]: 16.7 s
Bas [6]: 0%
Eos [6]: 1%
Fbg [6]: 294.8 mg/dL
Hb [6]: 13.9 g/dL
Ht [6]: 40.7%
Lym [6]: 78%
MCH [6]: 21.9 pg
MCHC [6]: 34.2%
MCV [6]: 63.8 fL
Mono [6]: 3%
Neu [6]: 17.8%
PT [6]: 12.9 s
Plat [6]: 131.8 x10_4/uL
RBC [6]: 638.8 x10_4/ul
Ret [6]: 6.6%
WBC [6]: 88.3 x10_2/uL
APTT [7]: 16.9 s
Bas [7]: 0%
Eos [7]: 1.2%
Fbg [7]: 259.4 mg/dL
Hb [7]: 14.6 g/dL
Ht [7]: 41.8%
Lym [7]: 72.4%
MCH [7]: 21.1 pg
MCHC [7]: 34.8%
MCV [7]: 60.5 fL
Mono [7]: 2.8%
Neu [7]: 23.2%
PT [7]: 13 s
Plat [7]: 105.3 x10_4/uL
RBC [7]: 691.2 x10_4/ul
Ret [7]: 4.7%
WBC [7]: 89.3 x10_2/uL
APTT [8]: 18.6 s
Bas [8]: 0.4%
Eos [8]: 1%
Fbg [8]: 255.2 mg/dL
Hb [8]: 15.7 g/dL
Ht [8]: 44.2%
Lym [8]: 79.4%
MCH [8]: 20.8 pg
MCHC [8]: 35.6%
MCV [8]: 58.5 fL
Mono [8]: 2.8%
Neu [8]: 16.2%
PT [8]: 12.6 s
Plat [8]: 90.5 x10_4/uL
RBC [8]: 755.2 x10_4/ul
Ret [8]: 2.8%
WBC [8]: 90.3 x10_2/uL
KIDNEY_L [6]: 1.1 g
KIDNEY_R [6]: 1.1 g
KIDNEY_TOTAL [6]: 2.1 g
KIDNEY_L [7]: 1.3 g
KIDNEY_R [7]: 1.3 g
KIDNEY_TOTAL [7]: 2.6 g
KIDNEY_L [8]: 1.5 g
KIDNEY_R [8]: 1.4 g
KIDNEY_TOTAL [8]: 2.9 g
LIVER [6]: 10.9 g
LIVER [7]: 13.8 g
LIVER [8]: 16.2 g
A/G [6]: 0.9
ALP [6]: 1601.8 IU/L
ALT [6]: 44 IU/L
AST [6]: 83.2 IU/L
BUN [6]: 15 mg/dL
CRE [6]: 0.2 mg/dL
Ca [6]: 10.6 mg/dL
Cl [6]: 105.8 meq/L
DBIL [6]: 0.015 mg/dL
GLC [6]: 174.8 mg/dL
IP [6]: 7.7 mg/dL
K [6]: 4.4 meq/L
LDH [6]: 65 IU/L
Na [6]: 142.5 meq/L
PL [6]: 128.2 mg/dL
RALB [6]: 2.6 g/dL
TBIL [6]: 0.025 mg/dL
TC [6]: 65.8 mg/dL
TG [6]: 65.5 mg/dL
TP [6]: 5.6 g/dL
gamma-GTP [6]: 1 IU/L
A/G [7]: 0.8
ALP [7]: 1468 IU/L
ALT [7]: 39 IU/L
AST [7]: 79.8 IU/L
BUN [7]: 14.8 mg/dL
CRE [7]: 0.2 mg/dL
Ca [7]: 11.1 mg/dL
Cl [7]: 106 meq/L
DBIL [7]: 0.012 mg/dL
GLC [7]: 176.2 mg/dL
IP [7]: 8.1 mg/dL
K [7]: 4 meq/L
LDH [7]: 79.2 IU/L
Na [7]: 143.4 meq/L
PL [7]: 135 mg/dL
RALB [7]: 2.7 g/dL
TBIL [7]: 0.022 mg/dL
TC [7]: 69.2 mg/dL
TG [7]: 86.8 mg/dL
TP [7]: 5.9 g/dL
gamma-GTP [7]: 1 IU/L
A/G [8]: 0.8
ALP [8]: 1096 IU/L
ALT [8]: 44.6 IU/L
AST [8]: 77.6 IU/L
BUN [8]: 16.4 mg/dL
CRE [8]: 0.2 mg/dL
Ca [8]: 11.3 mg/dL
Cl [8]: 105 meq/L
DBIL [8]: 0.024 mg/dL
GLC [8]: 179.2 mg/dL
IP [8]: 7.6 mg/dL
K [8]: 4 meq/L
LDH [8]: 81.4 IU/L
Na [8]: 143.6 meq/L
PL [8]: 126.8 mg/dL
RALB [8]: 2.8 g/dL
TBIL [8]: 0.034 mg/dL
TC [8]: 59 mg/dL
TG [8]: 132 mg/dL
TP [8]: 6.2 g/dL
gamma-GTP [8]: 1 IU/L
